We go through 31 compounds from patent US12600709B2, “Nonpeptide somatostatin type 5 receptor agonists and uses thereof” (Crinetics Pharmaceuticals, Inc., priority 2019, dated 2026).

This assay has as its target T1, human somatostatin receptor subtype 5 (Homo sapiens, UniProt P35346).
T1 construct: expressed in transfected cells
Put plainly: cAMP assay for SST5R (inhibition of cAMP in CHO-K1 cells). The class given is cell-based. The note with it: Table A; inhibition of cAMP via human SST5 receptor; read-out: SST5 potency. An excerpt: General overview: All five SSTR subtypes are Gi coupled G-protein coupled receptors (GPCRs) that lead to decreases in intracellular cyclic AMP (cAMP) when activated by an agonist. Therefore, measurement of intracellular cAMP levels can be used to assess whether compounds of the invention are agonists of SSTR subtypes (John Kelly, Troy Stevens, W. Joseph Thompson, and Roland Seifert, Current Protocols in Pharmacology, 2005, 2.2.1-2.2). One example of an intracellular cAMP assay is described below.
cAMP Assay Protocol for SST5R:
Four days prior to the assay, 2,000 Chinese hamster ovary cells (CHO-K1, ATCC #CCL-61) stably expressing the human somatostatin receptor subtype 5 are plated in each well of a 96-well tissue culture-treated plate in Ham's F12 growth media (ThermoFisher #10-080-CM) supplemented with 10% donor bovine serum (Gemini Bio-Products #100-506), 100 U/mL penicillin; 100 µg/mL streptomycin; 2 mM L-glutamine (Gemini Bio-Products #400-110) and 0.25 mg/mL G418 Sulfate (GoldBio #108321-42-2). The cells are cultured at 37° C., 5% CO2 and 95% humidity. On the day of the assay, the media is aspirated and the cells are treated with 50 μL of 1.6 μM NKH477 (Sigma #N3290) plus various dilutions of compounds of the invention in assay buffer [1× Hank's Balanced Salt Solution (ThermoFisher #SH3058802), 0.5 mM HEPES pH 7.4, 0.1% bovine serum albumin, 0.2 mM 3-Isobutyl-1-methylxanthine (IBMX, VWR #200002-790)]. The cells are incubated for 20 minutes at 37° C. […] The cells are treated with 50 μL of lysis buffer (HRTF cAMP kit, Cisbio) for 30 minutes and then the lysate is diluted to 250 μL with assay buffer. The lysate is transferred to 384-well plates and cAMP detection and visualization antibodies are added and incubated for 1-24 hours at room temperature. The time-resolved fluorescent signal is read with a Tecan M1000Pro multiplate reader. The intracellular cAMP concentrations are calculated by regression to a standard curve and are plotted vs. the concentration of the compounds of the invention and the EC50 of the compounds are calculated using standard methods. All data manipulations are in GraphPad Prism v6 or v7.

Some results are limits rather than exact numbers.

T1 sequence (P35346 whole entry): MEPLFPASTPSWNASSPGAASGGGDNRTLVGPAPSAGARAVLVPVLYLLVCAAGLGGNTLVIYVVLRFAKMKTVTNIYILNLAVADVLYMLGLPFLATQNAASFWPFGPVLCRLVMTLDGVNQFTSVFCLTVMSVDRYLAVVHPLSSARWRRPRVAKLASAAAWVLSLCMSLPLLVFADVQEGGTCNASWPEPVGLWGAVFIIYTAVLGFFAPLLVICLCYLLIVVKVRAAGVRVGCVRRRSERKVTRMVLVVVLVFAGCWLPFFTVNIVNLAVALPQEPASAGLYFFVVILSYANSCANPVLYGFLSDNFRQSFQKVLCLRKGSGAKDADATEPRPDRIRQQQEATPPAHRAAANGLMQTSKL

For the compound `C[C@]1(N)CCN(c2c(C(=O)N[C@@H]3CCCC[C@H]3F)cncc2-c2cc(F)cc(F)c2)C1` (mixture of isomers) [1-52, 4-[(3S)-3-amino-3-methylpyrrolidin-1-yl]-5-(3,5-difluorophenyl)-N-[trans-2-fluorocyclohexyl]pyridine-3-carboxamide], the EC50 is below 10 nM.

In the case of `C[C@]1(N)CCN(c2c(C(=O)N[C@@H]3CCCC[C@@H]3F)cncc2-c2cc(F)cc(F)c2)C1` (mixture of isomers) [1-83, 4-[(3S)-3-amino-3-methylpyrrolidin-1-yl]-5-(3,5-difluorophenyl)-N-[cis-2-fluorocyclohexyl]pyridine-3-carboxamide], the EC50 was below 10 nM.

For `N#Cc1ncc(C(=O)NC23CC(C2)C3)c(N2CC[C@](N)(CO)C2)c1-c1cc(F)cc(F)c1` (single isomer, unassigned) [1-99], the EC50 is above 1000 nM.

For `N#Cc1ncc(C(=O)NC23CC(C2)C3)c(N2C[C@H](N)[C@@H](F)C2)c1-c1cc(F)cc(F)c1` (single isomer, unassigned) [1-102], the EC50 is 10 to 100 nM.

As to `C[C@H](NC(=O)c1cnc(C#N)c(-c2cc(F)cc(F)c2)c1N1CC[C@@](N)(CC(F)F)C1)C1CC1` (single isomer, unassigned) [1-119], the EC50 fell in the range of 100 to 1000 nM.

In the case of `C[C@H](NC(=O)c1cnc(C#N)c(-c2cc(F)cc(F)c2)c1N1C[C@H](N)[C@@H](F)C1)C1CC1` (single isomer, unassigned) [1-136], the EC50 was 10 to 100 nM.

On to `C[C@H](NC(=O)c1cnc(C#N)c(-c2cc(F)cc(Cl)c2)c1N1C[C@H](N)[C@@H](F)C1)C1CC1` (single isomer, unassigned) [1-139], for which the EC50 is below 10 nM.

As for `C[C@H](NC(=O)c1cnc(C#N)c(-c2cc(F)cc(F)c2)c1N1CC[C@@](N)(CF)C1)C1CC1` (single isomer, unassigned) [1-220], the EC50 is below 10 nM.

Consider `C[C@H](NC(=O)c1cnc(C#N)c(-c2cc(F)cc(F)c2)c1N1CC[C@](N)(CF)C1)C1CC1` (single isomer, unassigned) [1-221], for which the EC50 is 10 to 100 nM.

Turning to `COc1ncc(C(=O)N[C@@H](C)C(F)(F)F)c(N2CC[C@](C)(N)C2)c1Br` (single isomer, unassigned) [1-274], the EC50 was above 1000 nM.

For the compound `N#Cc1cccc(-c2cncc(C(=O)NC3CCCCC3)c2N2CC[C@H](N)C2)c1` [1-7, 4-[(3S)-3-aminopyrrolidin-1-yl]-5-(3-cyanophenyl)-N-cyclohexylpyridine-3-carboxamide], the EC50 lay within 100 to 1000 nM.

Regarding `CC1(NC(=O)c2cncc(-c3cccc(C#N)c3)c2N2CC[C@H](N)C2)CCC1` [1-8, 4-[(3S)-3-aminopyrrolidin-1-yl]-5-(3-cyanophenyl)-N-(1-methylcyclobutyl)pyridine-3-carboxamide], the EC50 was 100 to 1000 nM.

Regarding `N#Cc1cccc(-c2cncc(C(=O)NCc3ccccc3)c2N2CC[C@H](N)C2)c1` [1-9, 4-[(3S)-3-aminopyrrolidin-1-yl]-N-benzyl-5-(3-cyanophenyl)pyridine-3-carboxamide], the EC50 is 100 to 1000 nM.

In the case of `Cc1cc(C)cc(-c2cncc(C(=O)NC3CCCC(F)(F)C3)c2N2CC[C@](C)(N)C2)c1` (stereo partly drawn) [1-14, 4-[(3S)-3-amino-3-methylpyrrolidin-1-yl]-N-(3,3-difluorocyclohexyl)-5-(3,5-dimethylphenyl)pyridine-3-carboxamide], the EC50 was below 10 nM.

Take `Cc1cc(F)cc(-c2cncc(C(=O)NC3(C(F)(F)F)CCCC3)c2N2CC[C@](C)(N)C2)c1` [1-15, 4-[(3S)-3-amino-3-methylpyrrolidin-1-yl]-5-(3-fluoro-5-methylphenyl)-N-[1-(trifluoromethyl)cyclopentyl]pyridine-3-carboxamide]: the EC50 was below 10 nM.

As for `Cc1cc(F)cc(-c2cncc(C(=O)NC3C4CC5CC(C4)CC3C5)c2N2CC[C@](C)(N)C2)c1` (stereo partly drawn) [1-18, N-(adamantan-2-yl)-4-[(3S)-3-amino-3-methylpyrrolidin-1-yl]-5-(3-fluoro-5-methylphenyl)pyridine-3-carboxamide], the EC50 was in the range of 10 to 100 nM.

As to `C[C@]1(N)CCN(c2c(C(=O)NC3CC3)cncc2-c2cc(F)cc(F)c2)C1` [1-23, 4-[(3S)-3-amino-3-methylpyrrolidin-1-yl]-N-cyclopropyl-5-(3,5-difluorophenyl)pyridine-3-carboxamide], the EC50 was 10 to 100 nM.

Regarding `Cc1cc(F)cc(-c2cncc(C(=O)NCC3CC3)c2N2CC[C@](C)(N)C2)c1` [1-26, 4-[(3S)-3-amino-3-methylpyrrolidin-1-yl]-N-(cyclopropylmethyl)-5-(3-fluoro-5-methylphenyl)pyridine-3-carboxamide], the EC50 was below 10 nM.

Turning to `Cc1cc(F)cc(-c2cncc(C(=O)Nc3ccn(C)n3)c2N2CC[C@](C)(N)C2)c1` [1-27, 4-[(3S)-3-amino-3-methylpyrrolidin-1-yl]-5-(3-fluoro-5-methylphenyl)-N-(1-methyl-1H-pyrazol-3-yl)pyridine-3-carboxamide], the EC50 was below 10 nM.

`C[C@]1(N)CCN(c2c(C(=O)NCC(F)(F)F)cncc2-c2cc(F)cc(F)c2)C1` [1-28, 4-[(3S)-3-amino-3-methylpyrrolidin-1-yl]-5-(3,5-difluorophenyl)-N-(2,2,2-trifluoroethyl)pyridine-3-carboxamide]: the EC50 lay within 10 to 100 nM.

On to `CC(C)(C)NC(=O)c1cncc(-c2cc(F)cc(F)c2)c1N1CC[C@](C)(N)C1` [1-29, 4-[(3S)-3-amino-3-methylpyrrolidin-1-yl]-N-tert-butyl-5-(3,5-difluorophenyl)pyridine-3-carboxamide], for which the EC50 fell in the range of 10 to 100 nM.

In the case of `CC1(CNC(=O)c2cncc(-c3cc(F)cc(F)c3)c2N2CC[C@](C)(N)C2)CC1` [1-32, 4-[(3S)-3-amino-3-methylpyrrolidin-1-yl]-5-(3,5-difluorophenyl)-N-[(1-methylcyclopropyl)methyl]pyridine-3-carboxamide], the EC50 is below 10 nM.

Consider `C[C@]1(N)CCN(c2c(C(=O)NCC3CCC3)cncc2-c2cc(F)cc(F)c2)C1` [1-33, 4-[(3S)-3-amino-3-methylpyrrolidin-1-yl]-N-(cyclobutylmethyl)-5-(3,5-difluorophenyl)pyridine-3-carboxamide], for which the EC50 was below 10 nM.

For the compound `COCC1(N)CCN(c2c(C(=O)NC34CC(C3)C4)cncc2-c2cc(F)cc(F)c2)C1` (stereo not shown) [1-36, 4-[3-amino-3-(methoxymethyl)pyrrolidin-1-yl]-N—{bicyclo[1.1.1]pentan-1-yl}-5-(3,5-difluorophenyl)pyridine-3-carboxamide], the EC50 was 10 to 100 nM.

Consider `N[C@@H]1CN(c2c(C(=O)NC34CC(C3)C4)cncc2-c2cc(F)cc(F)c2)C[C@H]1F` [1-37, 4-[(3R,4R)-3-amino-4-fluoropyrrolidin-1-yl]-N-{bicyclo[1.1.1]pentan-1-yl}-5-(3,5-difluorophenyl)pyridine-3-carboxamide], for which the EC50 was 10 to 100 nM.

For the compound `CC(C)C(C)NC(=O)c1cncc(-c2cc(F)cc(F)c2)c1N1CC[C@](C)(N)C1` (stereo partly drawn) [1-38, 4-[(3S)-3-amino-3-methylpyrrolidin-1-yl]-5-(3,5-difluorophenyl)-N-(3-methylbutan-2-yl)pyridine-3-carboxamide], the EC50 is below 10 nM.

As to `CC(C)C(NC(=O)c1cncc(-c2cc(F)cc(F)c2)c1N1CC[C@](C)(N)C1)C(C)C` [1-39, 4-[(3S)-3-amino-3-methylpyrrolidin-1-yl]-5-(3,5-difluorophenyl)-N-(2,4-dimethylpentan-3-yl)pyridine-3-carboxamide], the EC50 fell in the range of 100 to 1000 nM.

Take `CC(C)(NC(=O)c1cncc(-c2cc(F)cc(F)c2)c1N1CC[C@](C)(N)C1)C1CC1` [1-40, 4-[(3S)-3-amino-3-methylpyrrolidin-1-yl]-N-(2-cyclopropylpropan-2-yl)-5-(3,5-difluorophenyl)pyridine-3-carboxamide]: the EC50 was in the range of 10 to 100 nM.

Take `C[C@]1(N)CCN(c2c(C(=O)NCC3CC3(F)F)cncc2-c2cc(F)cc(F)c2)C1` (stereo partly drawn) [1-42, 4-[(3S)-3-amino-3-methylpyrrolidin-1-yl]-N-[(2,2-difluorocyclopropyl)methyl]-5-(3,5-difluorophenyl)pyridine-3-carboxamide]: the EC50 was below 10 nM.

For the compound `CC1(C)CC1CNC(=O)c1cncc(-c2cc(F)cc(F)c2)c1N1CC[C@](C)(N)C1` (stereo partly drawn) [1-43, 4-[(3S)-3-amino-3-methylpyrrolidin-1-yl]-5-(3,5-difluorophenyl)-N-[(2,2-dimethylcyclopropyl)methyl]pyridine-3-carboxamide], the EC50 was below 10 nM.

In the case of `CC(C)C(NC(=O)c1cncc(-c2cc(F)cc(F)c2)c1N1CC[C@](C)(N)C1)C(F)(F)F` (stereo partly drawn) [1-45, 4-[(3S)-3-amino-3-methylpyrrolidin-1-yl]-5-(3,5-difluorophenyl)-N-(1,1,1-trifluoro-3-methylbutan-2-yl)pyridine-3-carboxamide], the EC50 was below 10 nM.
